Measurements from PMC6702328, “A VDAC1-Derived N-Terminal Peptide Inhibits Mutant SOD1-VDAC1 Interactions and Toxicity in the SOD1 Model of ALS” (Frontiers in Cellular Neuroscience, 2019).

How the values were obtained:
[1] = tested on: U-87MG cells; assay: Cell death, PI staining and flow cytometry, U-87MG; type: cell-based, human; details: 5 h, serum-free medium, 37°C
Protocol: (§1) NSC-34 cells, a mouse motor neuron-like hybrid cell line, the A549 human lung adenocarcinoma and U-87MG human glioblastoma cell lines were incubated with the (1-26)N-Ter-Antp, D-(15-26)N-Ter-Antp, (1-20)N-Ter-Antp, (5-20)N-Ter-Antp, or (10-20)N-Ter-Antp peptides in the appropriate serum-free growth medium for 5 h at 37°C. Cells were harvested, and analyzed for cell death using propidium iodide (PI) staining and flow cytometry. For XTT, the CellTiter 96 AQueous one-solution cell proliferation assay was used to follow cell viability as described previously ([Leyton-Jaimes et al., 2016]).
(§2) NSC-34 (A), U-87MG (B), or A549 (C) cells were incubated with the indicated concentrations of (1-26)N-Ter-Antp (∙), D-(15-26) (19-26)N-Ter-Antp (▲), (1-20)N-Ter-Antp (∘), (5-20)N-Ter-Antp (□) or (10-20)N-Ter-Antp (◆) peptide for 5 h. Cell death was analyzed using PI staining and flow cytometry. […] Cell viability analysis was performed with the CellTiter 96 AQueous one-solution cell proliferation assay with ELISA at 490 nm. […] The significance of quantitative analysis of triplicates of different biological repeats (n = 3) was performed by Student’s t-test; ^∗∗P < 0.01. […] Twenty-four hours post-transfection, the cells were incubated for 5 h with (10-20)N-Ter-Antp peptide (20 μM) and then analyzed for apoptosis using acridine orange and ethidium bromide staining, as described previously ([McGahon et al., 1995]). Fluorescence microscopy images were analyzed and about 100 to 300 cells were counted for each treatment in representative microscopic fields. The significance of quantitative analysis of triplicates of different biological repeats (n = 3) was performed by one-way Anova; ^∗∗P < 0.01.

[2] = tested on: NSC-34 cells; assay: Cell death, PI staining and flow cytometry, NSC-34; type: cell-based, mouse; details: 5 h, serum-free medium, 37°C
Protocol: as §1, §2

[3] = tested on: A549 cells; assay: Cell death, PI staining and flow cytometry, A549; type: cell-based, human; details: 5 h, serum-free medium, 37°C
Protocol: as §1, §2

[4] = tested on: NSC-34 cells transfected to express human mutant SOD1^G93A; assay: Rescue of mutant SOD1^G93A toxicity, cell viability (XTT / CellTiter 96 AQueous); type: cell-based, mouse; details: NSC-34 cells expressing SOD1^G93A, increasing peptide concentrations, 5 h, XTT assay; n = 3
Protocol: as §1, §2
Cell viability was quantified using the XTT assay and apoptosis using acridine orange and ethidium bromide staining. […] Importantly, this effect was observed using the three non-cell death-inducing VDAC1-derived N-terminal peptides, i.e., the (1-20)-N-Ter-Antp, (5-20)-N-Ter-Antp and (10-20)-N-Ter-Antp peptides.

[5] = tested on: SH-SY5Y cells expressing SOD1^G93A or SOD1^G37R; assay: Co-localization of misfolded SOD1 with VDAC1, immunostaining and confocal microscopy; type: cell-based; details: peptide 20 μM, 5 h, 24 h post-transfection; anti-VDAC1 and B8H10 antibodies
Protocol: For immunostaining, SH-SY5Y cells (4.5 × 10^4) were grown on sterilized coverslips in 24-well plates. 30 h post-transfection, cells were fixed using 4% paraformaldehyde (PFA; diluted in PBS) for 15 min, and then washed 3 times with PBS (5 min each wash). Cells were then permeabilized with 0.3% Triton X-100 in PBS for 5 min followed by washing with PBS. Cells were then blocked for 1 h with blocking buffer (1% BSA free fatty acids diluted in PBS). Anti-VDAC1 polyclonal antibody (ab15895) and mouse anti misfolded SOD1 (B8H10, Medimabs) were incubated at room temperature for 1–2 h in a buffer of 1% BSA free fatty acids and 0.3% Triton-X100 in PBS. Following incubation with primary antibodies, cells were washed with PBS and incubated with fluorescent conjugated secondary Alexa Flour 488 anti-rabbit and Alexa flour 647 anti-mouse antibodies. The coverslips were carefully dried and mounted on slides using Immumount (Immumount^TM, Thermo). After overnight drying, images were acquired on an Olympus IX81 confocal microscope.
Twenty-four hours post-transfection, the cells were incubated for 5 h with (10-20)N-Ter-Antp peptide (20 μM) and then analyzed for co-localization using a confocal microscope. […] Scale bar, 10 μm.

[6] = tested on: SH-SY5Y cells expressing mutant SOD1^G93A; assay: Apoptosis, acridine orange/ethidium bromide staining, SOD1^G93A; type: cell-based; details: peptide 20 μM, 5 h, 24 h post-transfection, n = 3
Protocol: (§3) Apoptotic cell death was also analyzed using Acridine Orange (AcOr)/ethidium bromide (EtBr) staining ([McGahon et al., 1995]). Cells in 24-well plates were washed with 200 μl PBS and 10 μl of a solution containing […] in PBS was added. The cells were then visualized by fluorescence microscopy (ZOE fluorescence cell imager, Bio-Rad), images were recorded and cells at early and late apoptotic stages were counted.
as §2, with “The significance of quantitative analysis of triplicates of different biological repeats (n = 3) was performed by one-way Anova; ^∗∗P < 0.01.” left out

[7] = tested on: SH-SY5Y cells expressing mutant SOD1^G37R; assay: Apoptosis, acridine orange/ethidium bromide staining, SOD1^G37R; type: cell-based; details: peptide 20 μM, 5 h, 24 h post-transfection, n = 3
Protocol: as §3
as §2, with “The significance of quantitative analysis of triplicates of different biological repeats (n = 3) was performed by one-way Anova; ^∗∗P < 0.01.” left out

[8] = biological target: T1, SOD1^G93A (Homo sapiens, UniProt P00441, G94A); assay: Microscale thermophoresis (MST) binding to SOD1^G93A
T1 construct: made in house; host or cells: sf-9 cells
T1 sequence (P00441 whole entry G94A): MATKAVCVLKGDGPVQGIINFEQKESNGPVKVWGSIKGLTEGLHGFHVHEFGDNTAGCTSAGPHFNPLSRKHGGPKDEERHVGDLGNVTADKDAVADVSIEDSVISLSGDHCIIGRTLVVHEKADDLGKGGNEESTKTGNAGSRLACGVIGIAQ
Protocol: (§4) Recombinant hSOD1^wt, hSOD1^G93A, and hSOD1^G85R were expressed in sf-9 cells and purified by hydrophobic interaction chromatography using phenyl-Sepharose 6 Fast Flow high sub (Amersham Biosciences), followed by ion exchange chromatography using a HiTrap Q-Sepharose anion exchange column (Amersham Biosciences), as described previously ([Hayward et al., 2002]).
(§5) Microscale thermophoresis analysis was performed using a NanoTemper Monolith NT.115 apparatus, as recently described ([Wienken et al., 2010]; [Zillner et al., 2012]). […] The results are presented as the bound fraction, calculated as follows: fraction bound 100 × (F − Fmin)/(Fmax − Fmin).
(§6) MST measures any variation in the thermal movement of a fluorescently labeled binding partner. The subsequent fluorescence depletion in a heated spot of the protein solution is measured as a function of increasing interacting partner concentration, with dissociation constants (KD) values being derived from the depletion curves ([Wienken et al., 2010]; Figure 1D).
(§7) Molecular weight standards are presented. […] After 20 min of incubation, 3–5 μl aliquots were loaded into MST-grade glass capillaries (NanoTemper Technologies) and thermophoresis was measured with a NanoTemper Monolith-NT115 system. The percentage change in normalized fluorescence (ΔF Norm %) is plotted as a function of protein concentration. […]

[9] = biological target: T2, SOD1^G85R (Homo sapiens, UniProt P00441, G86R); assay: Microscale thermophoresis (MST) binding to SOD1^G85R; details: fluorescently labeled SOD1^G85R 230 nM, peptide 0.001–50 μM, 10 mM HEPES pH 7.4, 20 min, duplicate reads of triplicate experiments, read-out: EC50 (binding affinity, dissociation constant) of peptide to SOD1^G85R
T2 construct: made in house; host or cells: sf-9 cells
T2 sequence (P00441 whole entry G86R): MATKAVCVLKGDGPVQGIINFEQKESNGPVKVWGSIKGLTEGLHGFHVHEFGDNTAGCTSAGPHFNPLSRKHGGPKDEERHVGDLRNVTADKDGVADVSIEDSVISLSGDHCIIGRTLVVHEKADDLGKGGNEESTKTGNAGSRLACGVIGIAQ
Protocol: as §4, §5, §6, §7

[10] = biological target: T3, SOD1^WT (Homo sapiens, UniProt P00441); assay: Microscale thermophoresis (MST) binding to SOD1^WT; details: read-out: EC50 (binding affinity, dissociation constant) of peptide to SOD1^WT
T3 construct: made in house; host or cells: sf-9 cells
T3 sequence (P00441 whole entry): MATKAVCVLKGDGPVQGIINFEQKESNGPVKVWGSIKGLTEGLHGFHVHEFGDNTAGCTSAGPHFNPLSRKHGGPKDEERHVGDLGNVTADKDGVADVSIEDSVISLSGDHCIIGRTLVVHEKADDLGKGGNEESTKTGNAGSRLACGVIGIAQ
Protocol: as §4, §5, §6, §7

[11] = biological target: T4, ΔN-VDAC1 (Mus musculus, UniProt Q60932); assay: Channel conductance of N-terminally truncated VDAC1 reconstituted into a planar lipid bilayer; type: biochemical, murine; details: after addition of 40 μg/ml SOD1, mean ± SEM
T4 construct: inferred from pET21a vector, XhoI cloning and Ni-NTA purification) (C); made in house; host or cells: Escherichia coli BL21(DE3)
T4 sequence (Q60932 40-296, stated change not applied): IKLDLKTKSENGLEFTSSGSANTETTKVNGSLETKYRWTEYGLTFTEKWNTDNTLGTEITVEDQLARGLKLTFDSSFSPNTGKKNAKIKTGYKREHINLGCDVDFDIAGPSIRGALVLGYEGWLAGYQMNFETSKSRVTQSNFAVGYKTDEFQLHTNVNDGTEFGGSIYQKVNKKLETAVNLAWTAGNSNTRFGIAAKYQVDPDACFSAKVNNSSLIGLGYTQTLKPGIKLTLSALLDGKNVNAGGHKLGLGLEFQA
Protocol: (§8) Protein expression was induced for 3 h using 1 mM isopropyl-β-D-thiogalactopyranoside (IPTG; Sigma). Proteins were purified on agarose-packed nickel-nitrilotriacetic acid resin (Ni-NTA; Qiagen) in the presence of 8 M urea. Refolding of the eluted protein was performed essentially as described previously ([Hiller et al., 2008]).
The reconstitution of recombinant WT or ΔN-VDAC1 into a planar lipid bilayer (PLB) prepared from soybean asolectin, and subsequent single channel current recordings and data analysis were carried out as described previously ([Gincel et al., 2001]). Currents were recorded under voltage-clamp conditions before and 5 min after the addition of 40 μg of recombinant hSOD1^wt, hSOD1^G93A, or hSOD1^G85R to the cis compartment using a Bilayer Clamp BC-535B amplifier (Warner Instrument, Hamden, CT, United States). Current amplitude histograms were prepared using AxoGraph X software. Relative conductance was determined as the average steady-state conductance at a given voltage normalized to the conductance at 10 mV, the maximal conductance. Relative conductance-voltage plots were prepared using Microsoft Excel software.
(C) Relative conductance of ΔN-VDAC1 as a function of voltage in a step from 60 to –60 mV before (▲) and after addition of SOD1^WT (Δ). Relative conductance (conductance/maximal conductance) was determined as the average steady-state conductance at a given voltage normalized to the conductance at 10 mV, taken as the maximal conductance. […] (E–H) Similar experiments as in (A–D), except that mutant SOD1^G93A was used. (I–L) Similar experiments as in (A–D), except that mutant SOD1^G85R was used.

[12] = biological target: T5, recombinant full length VDAC1 (Mus musculus, UniProt Q60932); assay: Channel conductance of full length VDAC1 reconstituted into a planar lipid bilayer; type: biochemical, murine; details: for Conductance, VDAC1 + SOD1: planar lipid bilayer, after addition of 40 μg/ml SOD1, mean ± SEM, SEM
T5 construct: inferred from pET21a vector, XhoI cloning and Ni-NTA purification) (C); made in house; host or cells: Escherichia coli BL21(DE3)
T5 sequence (Q60932 14-296): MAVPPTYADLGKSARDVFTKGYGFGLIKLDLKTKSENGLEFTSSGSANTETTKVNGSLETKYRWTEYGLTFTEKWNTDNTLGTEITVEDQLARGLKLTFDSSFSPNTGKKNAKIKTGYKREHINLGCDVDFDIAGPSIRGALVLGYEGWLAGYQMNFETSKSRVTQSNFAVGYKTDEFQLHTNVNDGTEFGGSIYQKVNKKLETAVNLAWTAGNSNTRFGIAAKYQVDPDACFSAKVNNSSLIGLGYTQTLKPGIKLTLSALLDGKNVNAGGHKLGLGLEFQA
Protocol: as §8
Currents were recorded under voltage-clamp conditions before and 5 min after the addition of 40 μg of recombinant hSOD1^wt, hSOD1^G93A, or hSOD1^G85R to the cis compartment using a Bilayer Clamp BC-535B amplifier (Warner Instrument, Hamden, CT, United States). Current amplitude histograms were prepared using AxoGraph X software. […] Relative conductance-voltage plots were prepared using Microsoft Excel software.
Relative conductance (conductance/maximal conductance) was determined as the average steady-state conductance at a given voltage normalized to the conductance at 10 mV, considered the maximal conductance.

1-MAVPPTYADLGKSARDVFTKG YGFGL-26- RQIKIWFQNRRMKWKK [(1-26)-N-Ter-Antp]
Cell death induction in U-87MG cells [1]: induced massive cell death
Cell death induction in NSC-34 cells [2]: induced massive cell death
Cell death induction in A549 cells [3]: induced massive cell death

5-PTYADLGKSARDVFTK-20- RQIKIWFQNRRMKWKK [(5-20)-N-Ter-Antp, like (1-20)-N-Ter-Antp but shortened by four amino acids at the N-terminus]
Effect on SOD1^G93A toxicity (cell viability) [4]: reduced the toxic effect of SOD1^G93A in a concentration-dependent manner
Cell death induction in U-87MG cells [1]: could not induce cell death
Cell death induction in NSC-34 cells [2]: could not induce cell death
Cell death induction in A549 cells [3]: could not induce cell death

10-LGKSARDVFTK-20- RQIKIWFQNRRMKWKK [(10-20)-N-Ter-Antp, like (1-20)-N-Ter-Antp but shortened by nine amino acids at the N-terminus]
Effect on SOD1^G93A toxicity (cell viability) [4]: reduced the toxic effect of SOD1^G93A in a concentration-dependent manner
Cell death induction in U-87MG cells [1]: could not induce cell death
Co-localization of misfolded SOD1 with VDAC1 [5]: co-localization was greatly eliminated
Cell death induction in NSC-34 cells [2]: could not induce cell death
decrease of SOD1^G93A-mediated cell death [6]: 68%
Cell death induction in A549 cells [3]: could not induce cell death
decrease of SOD1^G37R-mediated cell death [7]: 81%

14-RDVFTKGYGFGL-26- RQIKIWFQNRRMKWKK [D-(15-26)-N-Ter-Antp]
Cell death induction in U-87MG cells [1]: induced massive cell death
Cell death induction in NSC-34 cells [2]: induced massive cell death
Cell death induction in A549 cells [3]: induced massive cell death

159-ETAKSRVTQSNFAVGYKT-177 [LP3, reference compound]
Binding to mutant SOD1 compared with the (1-26)-N-terminal peptide ([8]; MST, fluorescently labeled SOD1^G93A 675 nM, LP3 6–40 μM, HEPES buffer): significantly lower binding to mutant SOD1

CSCC[C@H](N)C(=O)N[C@@H](C)C(=O)N[C@H](C(=O)N1CCC[C@H]1C(=O)N1CCC[C@H]1C(=O)N[C@H](C(=O)N[C@@H](Cc1ccc(O)cc1)C(=O)N[C@@H](C)C(=O)N[C@@H](CC(=O)O)C(=O)N[C@@H](CC(C)C)C(=O)NCC(=O)N[C@@H](CCCCN)C(=O)N[C@@H](CO)C(=O)N[C@@H](C)C(=O)N[C@@H](CCCNC(=N)N)C(=O)N[C@@H](CC(=O)O)C(=O)N[C@H](C(=O)N[C@@H](Cc1ccccc1)C(=O)N[C@H](C(=O)N[C@@H](CCCCN)C(=O)NCC(=O)N[C@@H](Cc1ccc(O)cc1)C(=O)NCC(=O)N[C@@H](Cc1ccccc1)C(=O)NCC(=O)N[C@@H](CC(C)C)C(=O)O)[C@@H](C)O)C(C)C)[C@@H](C)O)C(C)C [(1-26)N-Terminal]
EC50 [9]: 3.75 µM
EC50 [8]: 3.75 µM
EC50 [10]: > 200 µM

SOD1^G85R: recombinant human mutant SOD1 G85R expressed in sf-9 cells
Conductance, ΔN-VDAC1 + SOD1 [11]: 3.92 ± 0.08 nS
Conductance, VDAC1 + SOD1 [12]: 2.3 ± 0.35 nS

SOD1^G93A: recombinant human mutant SOD1 G93A expressed in sf-9 cells
Conductance, ΔN-VDAC1 + SOD1 [11]: 3.45 ± 0.01 nS

SOD1^WT: recombinant wild type human SOD1 expressed in sf-9 cells
Conductance, ΔN-VDAC1 + SOD1 [11]: 3.69 ± 0.13 nS
effect on VDAC1 current ([12]; highest concentration 60 μg/ml, current-time traces at −10 or 10 mV): had no effect on the current
Conductance, VDAC1 + SOD1 [12]: 3.84 ± 0.1 nS
